US20030176314A1, “Compounds for the treatment of pain” (priority 2001, published 2003)

Each compound was assayed against T1, human α2B adrenergic receptor (Homo sapiens, UniProt P18089) (assay: Binding at human α2B adrenergic receptor). Details: Table 8; read-out: hα2B Ki.
T1 construct: host or cells: LM(tk-) cells, line L-NGC-α2B
T1 sequence (P18089 1-450): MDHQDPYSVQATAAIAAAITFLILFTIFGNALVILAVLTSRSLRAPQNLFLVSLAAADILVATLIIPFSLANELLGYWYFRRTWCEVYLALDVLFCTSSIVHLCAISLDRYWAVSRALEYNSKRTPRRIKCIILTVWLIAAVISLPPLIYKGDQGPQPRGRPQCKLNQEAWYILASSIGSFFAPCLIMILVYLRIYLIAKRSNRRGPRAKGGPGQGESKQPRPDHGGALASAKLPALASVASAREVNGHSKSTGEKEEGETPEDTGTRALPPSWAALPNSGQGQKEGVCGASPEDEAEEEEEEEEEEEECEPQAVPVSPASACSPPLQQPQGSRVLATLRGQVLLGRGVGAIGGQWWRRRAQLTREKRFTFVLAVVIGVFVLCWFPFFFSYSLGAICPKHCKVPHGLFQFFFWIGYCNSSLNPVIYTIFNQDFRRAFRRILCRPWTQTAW
Source text: (§1) α2 Human Adrenergic Receptors: To determine the binding of compounds to human α2 receptors, LM(tk−) cell lines stably transfected with the genes encoding the α2A, α2B, and α2C receptors were used. The cell line expressing the α2A receptor is designated L-α2A, and was deposited on Nov. 6, 1992, under ATCC Accession No. CRL 11180. The cell line expressing the α2B receptor is designated L-NGC-α2B, and was deposited on Oct. 25, 1989, under ATCC Accession No. CRL 10275. The cell line expressing the α2C receptor is designated L-α2C, and was deposited on Nov. 6, 1992, under ATCC Accession No. CRL-11181. Cell lysates were prepared as described herin, and suspended in 25 mM glycyiglycine buffer (pH 7.6 at room temperature). Equilibrium competition binding assay were performed using […] (0.5 nM), and nonspecific binding was determined by incubation with 10 μM phentolamine. The bound radioligand was separated by filtration through GF/B filters using a cell harvester.
(§2) The binding affinity (Ki) of these compounds were tested according to the protocols described herein at the following receptors; human α1A, α1B, α1D, α2A, α2B, and α2C adrenergic receptors; human Y1, Y2, Y4, and Y5 receptors; and N-Methyl-D-aspartic acid (NMDA) receptor channels. The binding interactions of these compounds were additionally tested at the norepinephrine (NE) transporter (NE uptake) and serotonin (5-hydroxytryptamine (5HT)) transporter (5HT uptake) according to protocols described herein

Compound	Ki
CCc1ccc2nc(NC(=N)N)nc(C)c2c1 [Compound 1003A, N-(6-ethyl-4-methyl-2-quinazolinyl)guanidine]	31.8 µM
CCc1ccc2c(C)nc(NC(=N)N)nc2c1 [Compound 1020A, N-(7-ethyl-4-methyl-2-quinazolinyl)guanidine]	20.9 µM
CCCCCc1ccc2nc(NC(=N)N)nc(C)c2c1 [Compound 2001A, N-(4-methyl-6-pentyl-2-quinazolinyl)guanidine]	7.41 µM
CCC(C)c1ccc2nc(NC(=N)N)nc(C)c2c1 (centres unmarked) [Compound 2002A, N-(6-sec-butyl-4-methyl-2-quinazolinyl)guanidine]	12.9 µM

These compounds were tested against T2, serotonin (5HT) transporter (Rattus norvegicus, UniProt P31652) (assay: Binding at native serotonin transporter (5HT uptake)). Details: Table 8.
T2 construct: evaluated at native, tissue-derived transporters; from tissue
T2 sequence (P31652 whole entry): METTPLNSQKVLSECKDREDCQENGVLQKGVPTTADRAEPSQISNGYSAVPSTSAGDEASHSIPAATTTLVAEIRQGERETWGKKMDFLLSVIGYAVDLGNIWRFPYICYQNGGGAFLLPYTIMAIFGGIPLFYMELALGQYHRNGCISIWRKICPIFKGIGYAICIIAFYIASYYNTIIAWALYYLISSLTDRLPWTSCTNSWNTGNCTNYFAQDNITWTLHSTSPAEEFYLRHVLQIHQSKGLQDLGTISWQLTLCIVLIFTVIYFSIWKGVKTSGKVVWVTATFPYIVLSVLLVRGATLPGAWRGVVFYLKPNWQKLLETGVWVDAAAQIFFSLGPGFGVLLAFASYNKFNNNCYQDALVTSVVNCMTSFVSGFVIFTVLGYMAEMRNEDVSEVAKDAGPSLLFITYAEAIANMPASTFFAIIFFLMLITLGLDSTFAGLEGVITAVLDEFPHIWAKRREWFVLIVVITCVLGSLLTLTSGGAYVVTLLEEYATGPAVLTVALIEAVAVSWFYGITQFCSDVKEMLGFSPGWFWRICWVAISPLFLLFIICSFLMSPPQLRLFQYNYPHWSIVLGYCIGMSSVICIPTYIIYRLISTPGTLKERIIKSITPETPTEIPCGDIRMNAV
Procedure: (§3) Transporters: The binding properties of compounds were evaluated at native, tissue-derived transporters, namely serotonin (5HT) transporter and norepinephrine (NE) transporter, according to protocols described in Owens (1997), the disclosure of which is hereby incorporated by reference in its entirety into this application.
as §2

Compound	Ki
CCc1ccc2c(C)nc(NC(=N)N)nc2c1 [Compound 1020A, N-(7-ethyl-4-methyl-2-quinazolinyl)guanidine]	5.59 µM
CCCCCc1ccc2nc(NC(=N)N)nc(C)c2c1 [Compound 2001A, N-(4-methyl-6-pentyl-2-quinazolinyl)guanidine]	0.962 µM

The compounds below were run against N-methyl-D-aspartate (NMDA) receptor channel complex (assay: Binding at native NMDA receptor channels). Details: Table 8.
Set-up: species or system rat
Procedure: NMDA Receptor Channels: The methods to determine binding affinity at native N-methyl-D-aspartate (NMDA) receptor channels are described in Wong E. H. et al. (1988), the disclosure of which is hereby incorporated by reference in its entirety into this application.
as §2

Compound	Ki
CCc1ccc2nc(NC(=N)N)nc(C)c2c1 [Compound 1003A, N-(6-ethyl-4-methyl-2-quinazolinyl)guanidine]	19.5 µM
CCCCCc1ccc2nc(NC(=N)N)nc(C)c2c1 [Compound 2001A, N-(4-methyl-6-pentyl-2-quinazolinyl)guanidine]	8.13 µM
CCC(C)c1ccc2nc(NC(=N)N)nc(C)c2c1 (centres unmarked) [Compound 2002A, N-(6-sec-butyl-4-methyl-2-quinazolinyl)guanidine]	7.62 µM

The compounds below were run against T3, human NPFF2 receptor (Homo sapiens, UniProt Q9Y5X5) (assay: Functional assay (agonist potency, intrinsic activity) at cloned human NPFF2 receptor). Details: Table 6, intrinsic activity.
T3 construct: one of these, B089, was determined to be a full length clone with no point mutations; expressed in transfected cells; host or cells: not given
T3 sequence (Q9Y5X5 103-522): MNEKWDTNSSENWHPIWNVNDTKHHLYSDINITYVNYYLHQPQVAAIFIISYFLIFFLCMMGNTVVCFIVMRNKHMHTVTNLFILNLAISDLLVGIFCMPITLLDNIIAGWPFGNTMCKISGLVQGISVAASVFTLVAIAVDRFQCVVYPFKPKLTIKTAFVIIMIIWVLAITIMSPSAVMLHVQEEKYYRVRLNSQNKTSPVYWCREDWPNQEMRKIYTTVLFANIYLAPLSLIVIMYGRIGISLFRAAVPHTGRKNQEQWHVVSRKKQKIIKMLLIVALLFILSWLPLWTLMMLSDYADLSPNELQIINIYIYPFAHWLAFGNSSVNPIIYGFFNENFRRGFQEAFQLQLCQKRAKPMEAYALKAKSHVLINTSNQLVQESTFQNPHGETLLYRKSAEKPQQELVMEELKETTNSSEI
Format: cell-based

Compound	hNPFF2 IA
CCCCCc1ccc2nc(NC(=N)N)nc(C)c2c1 [Compound 2001A, N-(4-methyl-6-pentyl-2-quinazolinyl)guanidine]	84% NPFF

What follows are compounds tested against T4, rat NPFF2 receptor (Rattus norvegicus, UniProt Q9EQD2) (assay: Functional assay (agonist potency, intrinsic activity) at cloned rat NPFF2 receptor). Details: Table 7, intrinsic activity.
T4 construct: The full-length NPFF2 was amplified from rat spinal cord cDNA; expressed in transfected cells; host or cells: not given
T4 sequence (Q9EQD2 whole entry): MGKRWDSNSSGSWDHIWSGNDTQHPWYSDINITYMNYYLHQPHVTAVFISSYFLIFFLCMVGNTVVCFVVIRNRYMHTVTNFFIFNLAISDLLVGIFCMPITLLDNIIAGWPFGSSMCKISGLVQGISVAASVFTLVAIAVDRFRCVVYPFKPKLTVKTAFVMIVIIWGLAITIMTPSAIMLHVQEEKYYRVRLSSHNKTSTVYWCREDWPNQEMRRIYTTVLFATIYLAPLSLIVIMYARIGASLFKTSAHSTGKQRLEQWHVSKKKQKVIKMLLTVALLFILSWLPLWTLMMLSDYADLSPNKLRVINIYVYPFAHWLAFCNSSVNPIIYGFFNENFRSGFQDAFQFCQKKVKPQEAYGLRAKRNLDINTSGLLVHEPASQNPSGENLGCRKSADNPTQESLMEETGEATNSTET
Format: cell-based

Compound	rNPFF2 IA
CCc1ccc2nc(NC(=N)N)nc(C)c2c1 [Compound 1003A, N-(6-ethyl-4-methyl-2-quinazolinyl)guanidine]	83% NPFF
CCc1ccc2c(C)nc(NC(=N)N)nc2c1 [Compound 1020A, N-(7-ethyl-4-methyl-2-quinazolinyl)guanidine]	90% NPFF
CCCCCc1ccc2nc(NC(=N)N)nc(C)c2c1 [Compound 2001A, N-(4-methyl-6-pentyl-2-quinazolinyl)guanidine]	103% NPFF
CCC(C)c1ccc2nc(NC(=N)N)nc(C)c2c1 (centres unmarked) [Compound 2002A, N-(6-sec-butyl-4-methyl-2-quinazolinyl)guanidine]	92% NPFF

These compounds were tested against T5, human α2C adrenergic receptor (Homo sapiens, UniProt P18825) (assay: Binding at human α2C adrenergic receptor). Details: Table 8; read-out: hα2C Ki.
T5 construct: host or cells: LM(tk-) cells, line L-α2C
T5 sequence (P18825 1-462): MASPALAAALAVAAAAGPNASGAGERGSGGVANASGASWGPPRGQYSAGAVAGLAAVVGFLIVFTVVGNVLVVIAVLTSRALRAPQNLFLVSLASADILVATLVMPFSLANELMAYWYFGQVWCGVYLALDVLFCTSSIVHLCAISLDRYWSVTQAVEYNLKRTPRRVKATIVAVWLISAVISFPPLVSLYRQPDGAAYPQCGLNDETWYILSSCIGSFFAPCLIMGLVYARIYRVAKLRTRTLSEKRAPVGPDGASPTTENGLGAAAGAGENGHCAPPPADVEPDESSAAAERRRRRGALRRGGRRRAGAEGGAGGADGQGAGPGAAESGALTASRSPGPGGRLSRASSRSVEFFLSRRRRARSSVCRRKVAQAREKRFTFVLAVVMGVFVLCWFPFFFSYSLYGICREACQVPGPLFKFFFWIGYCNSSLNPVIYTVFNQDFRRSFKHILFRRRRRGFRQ
Source text: as §1, §2

Compound	Ki
CCc1ccc2nc(NC(=N)N)nc(C)c2c1 [Compound 1003A, N-(6-ethyl-4-methyl-2-quinazolinyl)guanidine]	8.45 µM
CCc1ccc2c(C)nc(NC(=N)N)nc2c1 [Compound 1020A, N-(7-ethyl-4-methyl-2-quinazolinyl)guanidine]	4.13 µM
CCCCCc1ccc2nc(NC(=N)N)nc(C)c2c1 [Compound 2001A, N-(4-methyl-6-pentyl-2-quinazolinyl)guanidine]	1.91 µM
CCC(C)c1ccc2nc(NC(=N)N)nc(C)c2c1 (centres unmarked) [Compound 2002A, N-(6-sec-butyl-4-methyl-2-quinazolinyl)guanidine]	3.33 µM

These compounds were tested against T6, human α2A adrenergic receptor (Homo sapiens, UniProt P08913) (assay: Binding at human α2A adrenergic receptor). Details: Table 8; read-out: hα2A Ki.
T6 construct: host or cells: LM(tk-) cells, line L-α2A
T6 sequence (P08913 1-465): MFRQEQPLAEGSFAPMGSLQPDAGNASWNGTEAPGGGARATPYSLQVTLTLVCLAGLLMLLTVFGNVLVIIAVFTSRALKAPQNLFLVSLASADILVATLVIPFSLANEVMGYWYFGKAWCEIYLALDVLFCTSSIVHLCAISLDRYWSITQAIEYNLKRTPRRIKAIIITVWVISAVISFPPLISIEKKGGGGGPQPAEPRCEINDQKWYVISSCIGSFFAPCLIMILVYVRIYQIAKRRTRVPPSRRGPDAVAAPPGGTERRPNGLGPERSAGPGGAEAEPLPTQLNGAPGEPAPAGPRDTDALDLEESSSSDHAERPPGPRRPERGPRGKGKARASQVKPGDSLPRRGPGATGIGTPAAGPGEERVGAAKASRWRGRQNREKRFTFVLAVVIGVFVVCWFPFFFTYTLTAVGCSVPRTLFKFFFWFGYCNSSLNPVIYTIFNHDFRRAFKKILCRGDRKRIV
Source text: as §1, §2

Compound	Ki
CCc1ccc2nc(NC(=N)N)nc(C)c2c1 [Compound 1003A, N-(6-ethyl-4-methyl-2-quinazolinyl)guanidine]	1.97 µM
CCc1ccc2c(C)nc(NC(=N)N)nc2c1 [Compound 1020A, N-(7-ethyl-4-methyl-2-quinazolinyl)guanidine]	1.17 µM
CCCCCc1ccc2nc(NC(=N)N)nc(C)c2c1 [Compound 2001A, N-(4-methyl-6-pentyl-2-quinazolinyl)guanidine]	0.808 µM
CCC(C)c1ccc2nc(NC(=N)N)nc(C)c2c1 (centres unmarked) [Compound 2002A, N-(6-sec-butyl-4-methyl-2-quinazolinyl)guanidine]	0.713 µM

The compounds below were run against T7, rat NPFF1 receptor (Rattus norvegicus, UniProt Q9EP86) (assay: Functional assay (agonist potency, intrinsic activity) at cloned rat NPFF1 receptor). Details: Table 7, intrinsic activity.
T7 construct: expressed in transfected cells; host or cells: not given
T7 sequence (Q9EP86 whole entry): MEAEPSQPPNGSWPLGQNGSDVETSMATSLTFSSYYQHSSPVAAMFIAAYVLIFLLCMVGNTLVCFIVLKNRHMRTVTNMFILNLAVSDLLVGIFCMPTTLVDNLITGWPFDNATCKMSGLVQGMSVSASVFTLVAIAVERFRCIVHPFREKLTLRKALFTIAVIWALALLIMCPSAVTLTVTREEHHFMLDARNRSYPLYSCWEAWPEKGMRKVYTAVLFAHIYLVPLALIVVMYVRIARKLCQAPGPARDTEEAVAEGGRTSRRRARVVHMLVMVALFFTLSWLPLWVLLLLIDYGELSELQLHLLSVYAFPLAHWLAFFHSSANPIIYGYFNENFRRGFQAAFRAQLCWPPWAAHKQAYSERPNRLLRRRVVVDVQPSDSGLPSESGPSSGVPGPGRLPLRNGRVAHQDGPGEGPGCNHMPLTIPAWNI
Format: cell-based

Compound	rNPFF1 IA
CCCCCc1ccc2nc(NC(=N)N)nc(C)c2c1 [Compound 2001A, N-(4-methyl-6-pentyl-2-quinazolinyl)guanidine]	71% NPFF
CCC(C)c1ccc2nc(NC(=N)N)nc(C)c2c1 (centres unmarked) [Compound 2002A, N-(6-sec-butyl-4-methyl-2-quinazolinyl)guanidine]	51% NPFF

Each compound was assayed against T8, norepinephrine (NE) transporter (Rattus norvegicus, UniProt Q63380) (assay: Binding at native norepinephrine transporter (NE uptake)). Details: Table 8.
T8 construct: evaluated at native, tissue-derived transporters; from tissue
T8 sequence (Q63380 1-617): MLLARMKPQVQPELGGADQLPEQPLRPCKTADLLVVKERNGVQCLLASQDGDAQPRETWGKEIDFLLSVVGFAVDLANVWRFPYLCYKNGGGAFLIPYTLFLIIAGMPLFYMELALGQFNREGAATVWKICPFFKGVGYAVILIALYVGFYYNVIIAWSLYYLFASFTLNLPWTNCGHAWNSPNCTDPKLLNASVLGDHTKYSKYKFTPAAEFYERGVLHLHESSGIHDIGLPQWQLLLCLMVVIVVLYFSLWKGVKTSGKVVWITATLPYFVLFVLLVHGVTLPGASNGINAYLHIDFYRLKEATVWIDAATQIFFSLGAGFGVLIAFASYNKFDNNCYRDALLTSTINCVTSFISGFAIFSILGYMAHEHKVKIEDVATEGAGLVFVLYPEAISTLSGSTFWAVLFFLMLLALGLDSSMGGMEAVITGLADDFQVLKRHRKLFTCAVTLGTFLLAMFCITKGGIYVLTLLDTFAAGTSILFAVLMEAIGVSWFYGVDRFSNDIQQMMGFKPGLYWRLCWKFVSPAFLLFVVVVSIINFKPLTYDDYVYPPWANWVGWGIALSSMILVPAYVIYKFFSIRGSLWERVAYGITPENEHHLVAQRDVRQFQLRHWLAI
Procedure: as §3, §2

Compound	Ki
CCc1ccc2c(C)nc(NC(=N)N)nc2c1 [Compound 1020A, N-(7-ethyl-4-methyl-2-quinazolinyl)guanidine]	8.02 µM
CCCCCc1ccc2nc(NC(=N)N)nc(C)c2c1 [Compound 2001A, N-(4-methyl-6-pentyl-2-quinazolinyl)guanidine]	1.16 µM
